According to PMC11823609, “Advancements in the fight against globally distributed OXA-48 carbapenemase: evaluating the new generation of carbapenemase inhibitors” (Antimicrobial Agents and Chemotherapy, 2025):
≈ marks a conversion by molar mass, not a printed value. Like-named read-outs stand apart in the source and are kept apart here.

Assays:
Assay in all cases: microbe, parasite or virus in culture
[1] = test system: E. coli TG1; type: cell-based; settings: Escherichia coli
Summary of the method: (§1)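 Triplicate MICs; EUCAST 13.0 breakpoints. Isogenic E. coli TG1 and porin-deficient HB4 expressing OXA-48 ± CTX-M-14. Compounds also tested individually.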

[2] = test system: E. coli TG1 (OXA-48); type: cell-based, Escherichia coli
Summary of the method: as §1

[3] = test system: E. coli HB4 ΔompC/F (CTX-M-14 + OXA-48); type: cell-based, Escherichia coli
Summary of the method: as §1

[4] = test system: E. coli HB4 ΔompC/F (OXA-48); type: cell-based, Escherichia coli
Summary of the method: as §1

[5] = test system: E. cloacae strain 231 (MLST 171, No ESBL); type: cell-based; settings: E. cloacae 231
Summary of the method: (§2)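 OXA-48-carrying Enterobacterales isolates were chosen as pairs with and without ESBLs. Ertapenem and ceftazidime MICs were then measured with each inhibitor at 4 mg/L, in triplicate, using EUCAST 13.0 breakpoints.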

[6] = test system: E. cloacae strain 235 (MLST 171, ESBL); type: cell-based
Summary of the method: as §2

[7] = test system: E. cloacae strain 272 (MLST 78, ESBL); type: cell-based
Summary of the method: as §2

[8] = test system: E. cloacae strain 281 (MLST 78, No ESBL); type: cell-based; settings: E. cloacae 281
Summary of the method: as §2

[9] = test system: E. coli strain 103 (MLST 10, ESBL); type: cell-based
Summary of the method: as §2

[10] = test system: E. coli strain 177 (MLST 131, ESBL); type: cell-based
Summary of the method: as §2

[11] = test system: E. coli strain 224 (MLST 127, No ESBL); type: cell-based; settings: E. coli 224
Summary of the method: as §2

[12] = test system: E. coli strain 264 (MLST 131, No ESBL); type: cell-based; settings: E. coli 264
Summary of the method: as §2

[13] = test system: K. pneumoniae strain 125 (MLST 307, ESBL); type: cell-based
Summary of the method: as §2

[14] = test system: K. pneumoniae strain 170 (MLST 307, No ESBL); type: cell-based; settings: K. pneumoniae 170
Summary of the method: as §2

[15] = test system: K. pneumoniae strain 19 (MLST 11, ESBL); type: cell-based
Summary of the method: as §2

[16] = test system: K. pneumoniae strain 194 (MLST 392, No ESBL); type: cell-based; settings: K. pneumoniae 194
Summary of the method: as §2

[17] = test system: K. pneumoniae strain 23 (MLST 392, ESBL); type: cell-based
Summary of the method: as §2

[18] = test system: K. pneumoniae strain 237 (MLST 147, No ESBL); type: cell-based; settings: K. pneumoniae 237
Summary of the method: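 MICs were determined in triplicate against WGS-characterized OXA-48-positive clinical isolates, with EUCAST 13.0 breakpoints applied. Each inhibitor was tested at 4 mg/L combined with ertapenem or ceftazidime as reporter substrates; compounds were also tested alone.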

[19] = test system: K. pneumoniae strain 238 (MLST 15, ESBL); type: cell-based
Summary of the method: as §2

[20] = test system: K. pneumoniae strain 413 (MLST 147, ESBL); type: cell-based
Summary of the method: as §2

[21] = test system: K. pneumoniae strain 497 (MLST 11, No ESBL); type: cell-based; settings: K. pneumoniae 497
[22] = test system: K. pneumoniae strain 71 (MLST 15, No ESBL); type: cell-based; settings: K. pneumoniae 71
Summary of the method: as §2

[23] = ceftazidime alone or with BLI at 4 mg/L
[24] = Enterobacter cloacae, BL alone or BL/BLI: AVI, REL, TAN, DUR 4 mg/L, VAB, XER 8 mg/L, ZID, NAC 1:1, read-out: MIC
[25] = Escherichia coli, BL alone or BL/BLI: AVI, REL, TAN, DUR 4 mg/L, VAB, XER 8 mg/L, ZID, NAC 1:1, read-out: MIC
[26] = Klebsiella pneumoniae, BL alone or BL/BLI: AVI, REL, TAN, DUR 4 mg/L, VAB, XER 8 mg/L, ZID, NAC 1:1, read-out: MIC

CC(C)(O/N=C(\C(=O)N[C@@H]1C(=O)N2C(C(=O)[O-])=C(C[n+]3ccccc3)CS[C@H]12)c1csc(N)n1)C(=O)O [CAZ, ceftazidime]
MIC ([1]; BL alone or BL/BLI: AVI, REL, TAN, DUR 4 mg/L, VAB, XER 8 mg/L, ZID, NAC 1:1): 0.25 µg/mL (≈ 0.457 µM) | MIC [1, 23]: 0.12 µg/mL (≈ 0.22 µM) | MIC ([2]; E. coli TG1 (OXA-48), ceftazidime alone or with BLI at 4 mg/L): 0.25 µg/mL (≈ 0.457 µM) | MIC ([2]; Escherichia coli): 0.25 µg/mL (≈ 0.457 µM) | MIC ([3]; E. coli HB4 ΔompC/F (CTX-M-14 + OXA-48), ceftazidime alone or with BLI at 4 mg/L): 16 µg/mL | MIC ([3]; Escherichia coli): 16 µg/mL (≈ 29.3 µM) | MIC ([4]; E. coli HB4 ΔompC/F (OXA-48), ceftazidime alone or with BLI at 4 mg/L): 1 µg/mL (≈ 1.83 µM) | MIC ([4]; Escherichia coli): 1 µg/mL (≈ 1.83 µM) | MIC [5, 23]: 1 µg/mL | MIC [5, 24]: 1 µg/mL | MIC ([6]; E. cloacae 235, ceftazidime alone or with BLI at 4 mg/L): 128 µg/mL | MIC ([6]; Enterobacter cloacae): 128 µg/mL | MIC ([7]; E. cloacae 272, ceftazidime alone or with BLI at 4 mg/L): ≥256 µg/mL | MIC ([7]; Enterobacter cloacae): ≥ 256 µg/mL | MIC [8, 23]: 0.5 µg/mL | MIC [8, 24]: 0.5 µg/mL | MIC ([9]; E. coli 103, ceftazidime alone or with BLI at 4 mg/L): 4 µg/mL | MIC ([9]; Escherichia coli): 4 µg/mL | MIC ([10]; E. coli 177, ceftazidime alone or with BLI at 4 mg/L): 128 µg/mL | MIC ([10]; Escherichia coli): 128 µg/mL | MIC [11, 23]: 0.25 µg/mL | MIC [11, 25]: 0.25 µg/mL | MIC [12, 23]: 0.25 µg/mL | MIC [12, 25]: 0.25 µg/mL | MIC ([13]; K. pneumoniae 125, ceftazidime alone or with BLI at 4 mg/L): 64 µg/mL | MIC ([13]; Klebsiella pneumoniae): 64 µg/mL | MIC [14, 23]: 0.5 µg/mL | MIC [14, 26]: 0.5 µg/mL | MIC ([15]; K. pneumoniae 19, ceftazidime alone or with BLI at 4 mg/L): 32 µg/mL | MIC ([15]; Klebsiella pneumoniae): 32 µg/mL | MIC [16, 23]: 0.5 µg/mL | MIC [16, 26]: 0.5 µg/mL | MIC ([17]; K. pneumoniae 23, ceftazidime alone or with BLI at 4 mg/L): 128 µg/mL | MIC ([17]; Klebsiella pneumoniae): 128 µg/mL | MIC [18, 23]: 0.25 µg/mL | MIC [18, 26]: 0.25 µg/mL | MIC ([19]; K. pneumoniae 238, ceftazidime alone or with BLI at 4 mg/L): 32 µg/mL | MIC ([19]; Klebsiella pneumoniae): 32 µg/mL | MIC ([20]; K. pneumoniae 413, ceftazidime alone or with BLI at 4 mg/L): 32 µg/mL | MIC ([20]; Klebsiella pneumoniae): 32 µg/mL | MIC [21, 23]: 0.5 µg/mL | MIC [21, 26]: 0.5 µg/mL | MIC [22, 23]: 0.5 µg/mL | MIC [22, 26]: 0.5 µg/mL
